The term IC50 denotes the point on the concentration scale where inhibition reaches its midpoint. Lower therefore signals higher potency.

The record followed here is patent US9850203B2, “Autotaxin inhibitor compounds” (PharmAkea, Inc., priority 2013, dated 2017).

This assay deals with human autotaxin (ATX) (Homo sapiens (Human), UniProt Q13822). Kind of assay: Human Autotaxin Assay. It counts as biochemical. The note with it: concentrated conditioned media from Hep3B cells; LPC substrate, choline release. As to the method: ATX activity is assayed in concentrated conditioned media from Hep3B human hepatocellular carcinoma cells by measuring the amount of choline released from the substrate, lysophosphatidylcholine (LPC) as it is cleaved to LPA. Conditioned media is collected from confluent Hep3B cells and concentrated 20-fold using Centriprep-30 filter devices (Millipore). To assay for autotaxin inhibition, 10-20 μL of the concentrated conditioned media is incubated with 2.5 μL of a test compound in DMSO and 72.5-82.5 μL lyso-PLD buffer (100 mM Tris pH 9, 500 mM NaCl, 5 mM MgCl2, 5 mM CaCl2, 0.05% Triton X-100 in the presence or absence of 0.2% fatty-acid-free human serum albumin) for 15 min at 37° C. After the 15 min incubation, 5 uL of 2 mM LPC (14:0; Avanti Polar Lipids Cat#855575C) diluted in lyso-PLD buffer is added for a final concentration of 100 uM and the incubation continues for 1.5-3 hours at 37° C.

Consider `Cc1c(Sc2cccc(C(=O)O)c2)c2ccc(Cl)c(F)c2n1CC(=O)N1CCCc2ccccc21` [Compound 1-36, 3-((6-Chloro-1-(2-(3,4-dihydroquinolin-1(2H)-yl)-2-oxoethyl)-7-fluoro-2-methyl-1H-indol-3-yl)thio)benzoic acid], for which the half-inhibitory concentration (IC50) was at most 500 nM.

The compound `Cc1c(Sc2cccc(C(=O)O)c2)c2ccc(Cl)c(F)c2n1CC(=O)N1CCC(O)(C(F)(F)F)C1` (stereo not shown) [Compound 1-37, 3-((6-Chloro-7-fluoro-1-(2-(3-hydroxy-3-(trifluoromethyl)pyrrolidin-1-yl)-2-oxoethyl)-2-methyl-1H-indol-3-yl)thio)benzoic acid] showed a half-inhibitory concentration (IC50) of at most 500 nM. For `Cc1c(Sc2cccc(C(=O)O)c2)c2ccc(Cl)c(F)c2n1CC(=O)N1CC2(CCCC2)c2ccccc21` [Compound 1-39, 3-((6-Chloro-7-fluoro-2-methyl-1-(2-oxo-2-(spiro[cyclopentane-1,3′-indolin]-1′-yl)ethyl)-1H-indol-3-yl)thio)benzoic acid] the value was at most 500 nM. The compound `Cc1c(Sc2cccc(C(=O)O)c2)c2ccc(Cl)c(F)c2n1CC(=O)N1CCC2(CC1)CC2C(=O)N1CCCC1` (stereo not shown) [Compound 1-40, 3-((6-Chloro-7-fluoro-2-methyl-1-(2-oxo-2-(1-(pyrrolidine-1-carbonyl)-6-azaspiro[2.5]octan-6-yl)ethyl)-1H-indol-3-yl)thio)benzoic acid] registered an IC50 of 500 to 3000 nM. As for `Cc1c(Sc2cccc(C(=O)O)c2)c2ccc(Cl)c(F)c2n1CC(=O)N1CCC2(CC1)CC(=O)N2` [Compound 1-41, 3-((6-Chloro-7-fluoro-2-methyl-1-(2-oxo-2-(2-oxo-1,7-diazaspiro[3.5]nonan-7-yl)ethyl)-1H-indol-3-yl)thio)benzoic acid], the figure is at most 500 nM; as for `Cc1c(Sc2cccc(C(=O)O)c2)c2ccc(Cl)c(F)c2n1CC(=O)N1CC(N2CCC(F)(F)C2)C1` [Compound 1-42, 3-((6-Chloro-1-(2-(3-(3,3-difluoropyrrolidin-1-yl)azetidin-1-yl)-2-oxoethyl)-7-fluoro-2-methyl-1H-indol-3-yl)thio)benzoic acid], at most 500 nM. As to `Cc1c(Sc2cccc(C(=O)O)c2)c2ccc(Cl)c(F)c2n1CC(=O)N1CCC(C)(C)CC1` [Compound 1-44, 3-((6-Chloro-1-(2-(4,4-dimethylpiperidin-1-yl)-2-oxoethyl)-7-fluoro-2-methyl-1H-indol-3-yl)thio)benzoic acid], the IC50 was at most 500 nM. `Cc1c(Sc2cccc(C(=O)O)c2)c2ccc(Cl)c(F)c2n1CC(=O)N1CCC2(CC1)CNC(=O)C2` [Compound 1-45, 3-((6-Chloro-7-fluoro-2-methyl-1-(2-oxo-2-(3-oxo-2,8-diazaspiro[4.5]decan-8-yl)ethyl)-1H-indol-3-yl)thio)benzoic acid]: the IC50 is at most 500 nM. Compound `Cc1c(Sc2cccc(C(=O)O)c2)c2ccc(Cl)c(F)c2n1CC(=O)N1CCC2(CCOCC2)C1` [Compound 1-46, 3-((6-Chloro-7-fluoro-2-methyl-1-(2-oxo-2-(8-oxa-2-azaspiro[4.5]decan-2-yl)ethyl)-1H-indol-3-yl)thio)benzoic acid] returned an IC50 of at most 500 nM. As for `Cc1c(Sc2cccc(C(=O)O)c2)c2ccc(Cl)c(F)c2n1CC(=O)N1CC(N2CCS(=O)(=O)CC2)C1` [Compound 1-48, 3-((6-Chloro-1-(2-(3-(1,1-dioxidothiomorpholino)azetidin-1-yl)-2-oxoethyl)-7-fluoro-2-methyl-1H-indol-3-yl)thio)benzoic acid], the figure is at most 500 nM; as for `Cc1c(Sc2cccc(C(=O)O)c2)c2ccc(Cl)c(F)c2n1CC(=O)N1CC2(CNC(=O)C2)C1` [Compound 1-49, 3-((6-Chloro-7-fluoro-2-methyl-1-(2-oxo-2-(7-oxo-2,6-diazaspiro[3,4]octan-2-yl)ethyl)-1H-indol-3-yl)thio)benzoic acid], at most 500 nM; as for `Cc1c(Sc2cccc(C(=O)O)c2)c2ccc(Cl)c(F)c2n1CC(=O)N1CC2C(C1)C2C(N)=O` [Compound 1-51, 3-((1-(2-((1R,5S,6R)-6-Carbamoyl-3-azabicyclo[3.1.0]hexan-3-yl)-2-oxoethyl)-6-chloro-7-fluoro-2-methyl-1H-indol-3-yl)thio)benzoic acid], at most 500 nM. As for `Cc1c(Sc2cccc(C(=O)O)c2)c2ccc(Cl)c(F)c2n1CC(=O)N1CC(C)(O)C1` [Compound 1-52, 3-((6-Chloro-7-fluoro-1-(2-(3-hydroxy-3-methylazetidin-1-yl)-2-oxoethyl)-2-methyl-1H-indol-3-yl)thio)benzoic acid], the figure is at most 500 nM. Regarding `Cc1c(Sc2cccc(C(=O)O)c2)c2ccc(Cl)c(F)c2n1CC(=O)N1CCC2(CCNC(=O)CC2)CC1` [Compound 1-53, 3-((6-Chloro-7-fluoro-2-methyl-1-(2-oxo-2-(10-oxo-3,9-diazaspiro[5.6]dodecan-3-yl)ethyl)-1H-indol-3-yl)thio)benzoic acid], the IC50 was at most 500 nM. For `COc1ccc2c(c1)CCN2C(=O)Cn1c(C)c(Sc2cccc(C(=O)O)c2)c2ccc(Cl)c(F)c21` [Compound 1-58, 3-((6-Chloro-1-(2-(5-methoxyindolin-1-yl)-2-oxoethyl)-7-fluoro-2-methyl-1H-indol-3-yl)thio)benzoic acid] the value was at most 500 nM.

Regarding `Cc1c(Sc2cccc(C(=O)O)c2)c2ccc(Cl)c(F)c2n1CC(=O)N1CCCC1=O` [Compound 1-59, 3-((6-Chloro-7-fluoro-2-methyl-1-(2-oxo-2-(2-oxopyrrolidin-1-yl)ethyl)-1H-indol-3-yl)thio)benzoic acid], the IC50 was in the range of 500 to 3000 nM.

With `Cc1c(Sc2cccc(C(=O)O)c2)c2ccc(Cl)c(F)c2n1CC(=O)N1CCC(Cc2ccc(F)cc2)CC1` [Compound 1-60, 3-((6-Chloro-7-fluoro-1-(2-(4-(4-fluorobenzyl)piperidin-1-yl)-2-oxoethyl)-2-methyl-1H-indol-3-yl)thio)benzoic acid], the IC50 was 500 to 3000 nM. As for `Cc1c(Sc2cccc(C(=O)O)c2)c2ccc(Cl)c(F)c2n1CC(=O)N1CCC(CCn2cccn2)CC1` [Compound 1-61, 3-((1-(2-(4-(2-(1H-Pyrazol-1-yl)ethyl)piperidin-1-yl)-2-oxoethyl)-6-chloro-7-fluoro-2-methyl-1H-indol-3-yl)thio)benzoic acid], the figure is at most 500 nM; as for `Cc1c(Sc2cccc(C(=O)O)c2)c2ccc(Cl)c(F)c2n1CC(=O)N1CCC(CCc2ccccc2)CC1` [Compound 1-62, 3-((6-Chloro-7-fluoro-2-methyl-1-(2-oxo-2-(4-phenethylpiperidin-1-yl)ethyl)-1H-indol-3-yl)thio)benzoic acid], 500 to 3000 nM; as for `Cc1c(Sc2cccc(C(=O)O)c2)c2ccc(Cl)c(F)c2n1CC(=O)N1CCC(Cc2ccncc2)CC1` [Compound 1-63, 3-((6-Chloro-7-fluoro-2-methyl-1-(2-oxo-2-(4-(pyridin-4-ylmethyl)piperidin-1-yl)ethyl)-1H-indol-3-yl)thio)benzoic acid], at most 500 nM. For `Cc1c(Sc2cccc(C(=O)O)c2)c2ccc(Cl)c(F)c2n1CC(=O)N1CCC2(CCN(Cc3ccccc3)CC2)C1` [Compound 1-67, 3-((1-(2-(8-Benzyl-2,8-diazaspiro[4.5]decan-2-yl)-2-oxoethyl)-6-chloro-7-fluoro-2-methyl-1H-indol-3-yl)thio)benzoic acid] the value was 500 to 3000 nM. For the compound `Cc1c(Sc2cccc(C(=O)O)c2)c2ccc(Cl)c(F)c2n1CC(=O)N1CCCC2(CNC(=O)O2)C1` (stereo not shown) [Compound 1-69, 3-((6-Chloro-7-fluoro-2-methyl-1-(2-oxo-2-(2-oxo-1-oxa-3,7-diazaspiro[4.5]decan-7-yl)ethyl)-1H-indol-3-yl)thio)benzoic acid], the IC50 is at most 500 nM. As for `Cc1c(Sc2cccc(C(=O)O)c2)c2ccc(Cl)c(F)c2n1CC(=O)N1CCc2c(F)cc(F)cc21` [Compound 1-70, 3-((6-Chloro-1-(2-(4,6-difluoroindolin-1-yl)-2-oxoethyl)-7-fluoro-2-methyl-1H-indol-3-yl)thio)benzoic acid], the figure is at most 500 nM. For `Cc1c(Sc2cccc(C(=O)O)c2)c2ccc(Cl)c(F)c2n1CC(=O)N1CCc2cc(Cl)ccc21` [Compound 1-71, 3-((6-Chloro-1-(2-(5-chloroindolin-1-yl)-2-oxoethyl)-7-fluoro-2-methyl-1H-indol-3-yl)thio)benzoic acid] the value was at most 500 nM; for `Cc1c(Sc2cccc(C(=O)O)c2)c2ccc(Cl)c(F)c2n1CC(=O)N1CCc2cccnc21` [Compound 1-72, 3-((6-Chloro-1-(2-(2,3-dihydro-1H-pyrrolo[2,3-b]pyridin-1-yl)-2-oxoethyl)-7-fluoro-2-methyl-1H-indol-3-yl)thio)benzoic acid], 500 to 3000 nM; for `Cc1c(Sc2cccc(C(=O)O)c2)c2ccc(Cl)c(F)c2n1CC(=O)N1CCc2ccc(Cl)cc21` [Compound 1-73, 3-((6-Chloro-1-(2-(6-chloroindolin-1-yl)-2-oxoethyl)-7-fluoro-2-methyl-1H-indol-3-yl)thio)benzoic acid], at most 500 nM. For `Cc1c(Sc2cccc(C(=O)O)c2)c2ccc(Cl)c(F)c2n1CC(=O)N1CCC(CCc2ccccc2)C1` (stereo not shown) [Compound 1-76, 3-((6-Chloro-7-fluoro-2-methyl-1-(2-oxo-2-(3-phenethylpyrrolidin-1-yl)ethyl)-1H-indol-3-yl)thio)benzoic acid] the value was 500 to 3000 nM.

The compound `CCCC1CCN(C(=O)Cn2c(C)c(Sc3cccc(C(=O)O)c3)c3ccc(Cl)c(F)c32)C1` (stereo not shown) [Compound 1-77, 3-((6-Chloro-7-fluoro-2-methyl-1-(2-oxo-2-(3-propylpyrrolidin-1-yl)ethyl)-1H-indol-3-yl)thio)benzoic acid] showed an IC50 of at most 500 nM.
